Reference: patent publication US12649733B2, “3,6-diamino-pyridazin-3-yl derivatives, pharmaceutical compositions containing them and their uses as pro-apoptotic agents” (LES LABORATOIRES SERVIER, priority 2019, dated 2026)
pIC50, pKi: −log10 of the molar value.

What was measured:
[1] = tested on: MOLT-4 cells; experiment: MOLT-4 cell viability, MTT assay; assay type: cell-based; details: Homo sapiens, MOLT-4, 48 h, 48 h exposure
Summary of the method: (§1)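 Viability read by MTT reduction (OD 540 nm after overnight SDS/HCl lysis) after 48 h compound treatment of cells in RPMI 1640/10% FBS. Triplicates at nine concentrations, 3.16-fold apart; four-parameter curve fitting yields IC50.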

[2] = biological target: BCLXL (Homo sapiens, UniProt Q07817, V10N/V9A); experiment: Fluorescence polarisation assay (PUMA-based probe displacement); assay type: binding; note: 20 nM protein, 10 nM fluorescent probe
BCLXL, sequence (Q07817 with tags, fused parts or gaps V9A/V10N): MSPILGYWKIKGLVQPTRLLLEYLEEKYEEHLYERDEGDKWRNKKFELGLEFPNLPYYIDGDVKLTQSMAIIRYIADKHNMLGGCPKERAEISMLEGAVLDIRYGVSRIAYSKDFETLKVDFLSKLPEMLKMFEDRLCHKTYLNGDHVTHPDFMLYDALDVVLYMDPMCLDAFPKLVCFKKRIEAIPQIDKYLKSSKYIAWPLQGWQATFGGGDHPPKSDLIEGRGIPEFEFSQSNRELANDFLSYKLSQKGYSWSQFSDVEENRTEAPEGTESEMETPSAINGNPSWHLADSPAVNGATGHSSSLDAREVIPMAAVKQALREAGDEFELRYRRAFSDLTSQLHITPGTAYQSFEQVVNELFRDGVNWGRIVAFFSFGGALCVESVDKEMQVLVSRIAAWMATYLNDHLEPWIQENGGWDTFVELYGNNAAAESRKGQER

[3] = tested on: H146 cells; experiment: H146 cell viability, MTT assay; assay type: cell-based; details: Homo sapiens, NCI-H146, 48 h, 48 h exposure
Summary of the method: as §1

Row | SMILES | pIC50 [1] | pKi [2] | pIC50 [3]
1 | COCCCc1sc(N(CCCOC)c2cc(C)c(Nc3nc4ccccc4s3)nn2)nc1C(=O)O [Example 64, 2-({6-[(1,3-Benzothiazol-2-yl)amino]-5-methylpyridazin-3-yl}(3-methoxypropyl)amino)-5-(3-methoxypropyl)-1,3-thiazole-4-carboxylic acid] | 5.44 | 7.51 | 7.65
2 | COCCCN(c1cc(C)c(Nc2nc3ccccc3s2)nn1)c1nc(C(=O)O)c(CCCOC2CCCCC2)s1 [Example 66, 2-({6-[(1,3-Benzothiazol-2-yl)amino]-5-methylpyridazin-3-yl}(3-methoxypropyl)amino)-5-[3-(cyclohexyloxy)propyl]-1,3-thiazole-4-carboxylic acid] | 6.28 | 8.72 | 5.94
3 | COCCCN(c1cc(C)c(Nc2nc3ccccc3s2)nn1)c1nc(C(=O)O)c(CCCOc2ccccc2F)s1 [Example 67, 2-({6-[(1,3-Benzothiazol-2-yl)amino]-5-methylpyridazin-3-yl}(3-methoxypropyl)amino)-5-[3-(2-fluorophenoxy)propyl]-1,3-thiazole-4-carboxylic acid] | 6.12 | > 9.00 | 6.15
4 | Cc1cc(N(C)c2nc(C(=O)O)c(N3CC(OCc4ccccc4)C3)s2)nnc1Nc1nc2ccccc2s1 [Example 68, 2-({6-[(1,3-Benzothiazol-2-yl)amino]-5-methylpyridazin-3-yl}(methyl)amino)-5-[3-(benzyloxy)azetidin-1-yl]-1,3-thiazole-4-carboxylic acid] | 6.55 | 8.24 | 5.59
5 | Cc1cc(N(C)c2nc(C(=O)O)c(N3CC(Oc4ccccc4)C3)s2)nnc1Nc1nc2ccccc2s1 [Example 69, 2-({6-[(1,3-Benzothiazol-2-yl)amino]-5-methylpyridazin-3-yl}(methyl)amino)-5-(3-phenoxyazetidin-1-yl)-1,3-thiazole-4-carboxylic acid] | 6.35 | 8.38 | 6.16
6 | Cc1cc(N(C)c2nc(C(=O)O)c(N3CC[C@H](OCc4ccccc4)C3)s2)nnc1Nc1nc2ccccc2s1 [Example 70, 2-({6-[(1,3-Benzothiazol-2-yl)amino]-5-methylpyridazin-3-yl}(methyl)amino)-5-[(3S)-3-(benzyloxy)pyrrolidin-1-yl]-1,3-thiazole-4-carboxylic acid] | < 4.38 | 7.52 | < 4.82
7 | Cc1cc(N(C)c2nc(C(=O)O)c(N3CC[C@@H](OCc4ccccc4)C3)s2)nnc1Nc1nc2ccccc2s1 [Example 71, 2-({6-[(1,3-Benzothiazol-2-yl)amino]-5-methylpyridazin-3-yl}(methyl)amino)-5-[(3R)-3-(benzyloxy)pyrrolidin-1-yl]-1,3-thiazole-4-carboxylic acid] | < 4.82 | < 5.00 | < 4.82
8 | Cc1cc(N(C)c2nc(C(=O)O)c(N3CCC(OCc4ccccc4)CC3)s2)nnc1Nc1nc2ccccc2s1 [Example 75, 2-({6-[(1,3-Benzothiazol-2-yl)amino]-5-methylpyridazin-3-yl}(methyl)amino)-5-[4-(benzyloxy)piperidin-1-yl]-1,3-thiazole-4-carboxylic acid] | 5.53 | > 9.00 | < 4.82
9 | Cc1cc(N(C)c2nc(C(=O)O)c(N3CC[C@H](Oc4ccccc4)C3)s2)nnc1Nc1nc2ccccc2s1 [Example 77, 2-({6-[(1,3-Benzothiazol-2-yl)amino]-5-methylpyridazin-3-yl}(methyl)amino)-5-[(3S)-3-phenoxypyrrolidin-1-yl]-1,3-thiazole-4-carboxylic acid] | 5.18 | 6.96 | ≤ 4.83
10 | Cc1cc(N(C)c2nc(C(=O)O)c(C3CCC3)s2)nnc1Nc1nc2ccccc2s1 [Example 78, 2-({6-[(1,3-Benzothiazol-2-yl)amino]-5-methylpyridazin-3-yl}(methyl)amino)-5-cyclobutyl-1,3-thiazole-4-carboxylic acid] | < 4.82 | 6.96 | < 4.82
11 | Cc1cc(N(C)c2nc(C(=O)O)c(CCCOc3ccc(C#CCN(C)C(=O)OC(C)(C)C)cc3F)s2)nnc1Nc1nc2ccccc2s1 [Example 82, 2-({6-[(1,3-Benzothiazol-2-yl)amino]-5-methylpyridazin-3-yl}(methyl)amino)-5-{3-[4-(3-{[(tert-butoxy)carbonyl](methyl)amino}prop-1-yn-1-yl)-2-fluorophenoxy]propyl}-1,3-thiazole-4-carboxylic acid] | 7.17 | > 9.00 | 7.01
12 | Cc1cc(N(C)c2nc(C(=O)O)c(C3CCNCC3)s2)nnc1Nc1nc2ccccc2s1 [Example 83, 2-({6-[(1,3-Benzothiazol-2-yl)amino]-5-methylpyridazin-3-yl}(methyl)amino)-5-(piperidin-4-yl)-1,3-thiazole-4-carboxylic acid] | < 4.82 | 6.49 | < 4.82
13 | Cc1cc(N(C)c2nc(C(=O)O)c(C3CCN(C(=O)OC(C)(C)C)CC3)s2)nnc1Nc1nc2ccccc2s1 [Example 84, 2-({6-[(1,3-Benzothiazol-2-yl)amino]-5-methylpyridazin-3-yl}(methyl)amino)-5-{1-[(tert-butoxy)carbonyl]piperidin-4-yl}-1,3-thiazole-4-carboxylic acid] | 5.12 | 7.31 | < 4.82
14 | Cc1cc(N(C)c2nc(C(=O)O)c(C3CCN(Cc4ccccc4)CC3)s2)nnc1Nc1nc2ccccc2s1 [Example 86, 2-({6-[(1,3-Benzothiazol-2-yl)amino]-5-methylpyridazin-3-yl}(methyl)amino)-5-(1-benzylpiperidin-4-yl)-1,3-thiazole-4-carboxylic acid] | 4.84 | 6.80 | ≤ 4.91
15 | Cc1cc(N(C)c2nc(C(=O)O)c(C3CCN(CC(C)C)CC3)s2)nnc1Nc1nc2ccccc2s1 [Example 87, 2-({6-[(1,3-Benzothiazol-2-yl)amino]-5-methylpyridazin-3-yl}(methyl)amino)-5-[1-(2-methylpropyl)piperidin-4-yl]-1,3-thiazole-4-carboxylic acid] | < 4.82 | 6.28 | < 4.82
16 | Cc1cc(N(C)c2nc(C(=O)O)c(N3CCC(COc4ccccc4)CC3)s2)nnc1Nc1nc2ccccc2s1 [Example 88, 2-({6-[(1,3-Benzothiazol-2-yl)amino]-5-methylpyridazin-3-yl}(methyl)amino)-5-[4-(phenoxymethyl)piperidin-1-yl]-1,3-thiazole-4-carboxylic acid] | 5.79 | 8.55 | 4.96
17 | Cc1cc(N(C)c2nc(C(=O)O)c(C3CCCCC3)s2)nnc1Nc1nc2ccccc2s1 [Example 102, 2-({6-[(1,3-Benzothiazol-2-yl)amino]-5-methylpyridazin-3-yl}(methyl)amino)-5-cyclohexyl-1,3-thiazole-4-carboxylic acid] | < 4.82 | 6.66 | < 4.82
18 | Cc1cc(N(C)c2nc(C(=O)O)c(C3CCCC3)s2)nnc1Nc1nc2ccccc2s1 [Example 105, 2-({6-[(1,3-Benzothiazol-2-yl)amino]-5-methylpyridazin-3-yl}(methyl)amino)-5-cyclopentyl-1,3-thiazole-4-carboxylic acid] | < 4.82 | 6.42 | < 4.82
